Measured values as given in patent US7994140B2, “Classes of compounds that interact with GPCRs” (Alchemia Limited, priority 2002, dated 2011).

Target: T1, MC4 (Homo sapiens, UniProt P32245)
T1 construct: purchased Perkin Elmer BioSignal; host or cells: HEK 293
Test: GPCR radioligand binding (RLB) assay, melanocortin MC4, [125I]NDP-αMSH
Conditions: for MC4 inhibition at 10 micromolar: 10 micromolar compound, recombinant human receptor membranes (HEK 293); for MC4 Inhibition at 1.0 Micromolar: 1.0 micromolar compound
In short: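 Competition binding against radioligand ([125I]NDP-αMSH for MC4, [125I]SST-14 for SST5) on membranes of HEK 293 cells carrying the human receptor; buffer and incubation time optimized per receptor. Filtration through 0.5% PEI-treated glass fiber, washing, then scintillation counting.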

T1 sequence (P32245 whole entry): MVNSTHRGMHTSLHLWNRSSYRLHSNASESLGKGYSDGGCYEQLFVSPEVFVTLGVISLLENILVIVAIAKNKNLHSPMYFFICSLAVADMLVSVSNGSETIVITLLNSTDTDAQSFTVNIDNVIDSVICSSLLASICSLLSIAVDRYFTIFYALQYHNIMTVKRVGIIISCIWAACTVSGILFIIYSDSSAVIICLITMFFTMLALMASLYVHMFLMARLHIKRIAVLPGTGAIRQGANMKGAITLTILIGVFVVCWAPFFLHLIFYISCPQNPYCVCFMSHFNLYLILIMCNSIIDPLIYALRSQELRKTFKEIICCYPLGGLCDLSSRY

In the case of NCCC(=O)NC1C(OCc2ccc3ccccc3c2)OC(COCc2ccc3ccccc3c2)C(O)C1OCc1ccccc1 (stereo not drawn) [Compound 419], the “MC4 Inhibition at 4.0 Micromolar” value (Example Library 11) is reported as “+ (Indicates inhibition greater than . . . 50%)”.

N=C(N)NCC(=O)N[C@H]1C(OCc2ccccc2)O[C@H](COCc2ccc(Cl)cc2)[C@@H](O)[C@@H]1OCc1ccc(-c2ccccc2)cc1 (stereo partly drawn) [Compound 445] was tested, and the “MC4 Inhibition at 4.0 Micromolar” value (Example Library 12) was “+ (Indicates inhibition greater than . . . 50%)”.

In the case of COC1C(O)C(COCc2ccc(-c3ccccc3)cc2)OC(OCc2ccc(Cl)cc2)C1NC(=O)CCCN (stereo not drawn) [Compound 85], the “MC4 inhibition at 10 micromolar” value is reported as “+ (Indicates inhibition greater than . . . 50%)”.

For N=C(N)NCC(=O)N[C@H]1C(OCc2ccc(-c3ccccc3)cc2)O[C@H](COCc2ccccc2)[C@@H](O)[C@H]1OCc1ccc(-c2ccccc2)cc1 (stereo partly drawn) [Compound 468], the “MC4 Inhibition at 4.0 Micromolar” value (Example Library 13) was “+ (Indicates inhibition greater than . . . 50%)”.

In the case of CO[C@H]1[C@H](O)[C@@H](COCc2ccc3ccccc3c2)OC(OCCc2ccccc2)[C@@H]1NC(=O)CCNC(=N)N (stereo partly drawn) [Compound 101], the “MC4 inhibition at 10 micromolar” value is reported as “+ (Indicates inhibition greater than . . . 50%)”.

CO[C@H]1[C@H](O)[C@@H](COCc2ccc(-c3ccccc3)cc2)OC(OCc2ccc(-c3ccccc3)cc2)[C@@H]1NC(=O)CCCNC(=N)N (stereo partly drawn) [Compound 58] was tested, and the “MC4 inhibition at 10 micromolar” value was “+ (Indicates inhibition greater than . . . 50%)”.

For CSC1OC(COCc2cccc(N)c2)C(O)C(OCc2ccc(Cl)cc2)C1NC(=O)CCC1CNc2ccccc21 (stereo not drawn) [Compound 332], the “MC4 inhibition at 10 micromolar” value was “+ (Indicates inhibition greater than . . . 50%)”.

With NCC(=O)N[C@H]1C(OCc2ccc3ccccc3c2)O[C@H](COCc2ccc3ccccc3c2)[C@@H](O)[C@@H]1OCc1ccc2ccccc2c1 (stereo partly drawn) [Compound 356] the “MC4 Inhibition at 4.0 Micromolar” value (Example Library 10) was “+ (Indicates inhibition greater than . . . 50%)”.

N=C(N)NCCC(=O)N[C@H]1C(OCc2ccccc2)O[C@H](COCc2ccc(Cl)cc2)[C@@H](O)[C@@H]1OCc1ccc(-c2ccccc2)cc1 (stereo partly drawn) [Compound 461] was tested, and the “MC4 Inhibition at 4.0 Micromolar” value (Example Library 12) was “+ (Indicates inhibition greater than . . . 50%)”.

NCCC(=O)N[C@H]1C(OCc2ccc(Cl)cc2)O[C@H](COCc2ccccc2)[C@@H](O)[C@@H]1OCc1ccc2ccccc2c1 (stereo partly drawn) [Compound 379] was tested, and the “MC4 Inhibition at 4.0 Micromolar” value (Example Library 10) was “+ (Indicates inhibition greater than . . . 50%)”.

N=C(N)NCCC(=O)NC1C(OCc2ccc(Cl)cc2)OC(COCc2ccc3ccccc3c2)C(O)C1OCc1ccc(-c2ccccc2)cc1 (stereo not drawn) [Compound 494] was tested, and the “MC4 Inhibition at 4.0 Micromolar” value (Example Library 13) was “+ (Indicates inhibition greater than . . . 50%)”.

NCCC(=O)NC1C(OCc2ccccc2)OC(COCc2ccc(Cl)cc2)C(O)C1OCc1ccc(Cl)cc1 (stereo not drawn) [Compound 399] was tested, and the “MC4 Inhibition at 4.0 Micromolar” value (Example Library 11) was “+ (Indicates inhibition greater than . . . 50%)”.

CC(=O)N[C@H]1C(NC(=O)CCN)O[C@H](CO)[C@@H](O)[C@@H]1OCc1ccc(-c2ccccc2)cc1 (stereo partly drawn) [Compound 501] was tested, and the “MC4 Inhibition at 1.0 Micromolar” value was “+ (Indicates inhibition greater than . . . 50%)”.

With COC[C@H]1OC(OCCc2ccccc2)[C@H](NC(=O)CCNC(=N)N)[C@@H](OCc2ccc(-c3ccccc3)cc2)[C@@H]1O (stereo partly drawn) [Compound 20] the “MC4 inhibition at 10 micromolar” value was “+ (Indicates inhibition greater than . . . 50%)”.

For CO[C@H]1[C@H](O)[C@@H](COCc2ccc(Cl)cc2)OC(OCCc2ccccc2)[C@@H]1NC(=O)CCNC(=N)N (stereo partly drawn) [Compound 105], the “MC4 inhibition at 10 micromolar” value was “+ (Indicates inhibition greater than . . . 50%)”.

In the case of NCCCC(=O)N[C@H]1C(OCc2ccc(Cl)cc2)O[C@H](COCc2ccc3ccccc3c2)[C@@H](O)[C@@H]1OCc1ccc(Cl)cc1 (stereo partly drawn) [Compound 386], the “MC4 Inhibition at 4.0 Micromolar” value (Example Library 10) is reported as “+ (Indicates inhibition greater than . . . 50%)”.

For NCCC(=O)N[C@H]1C(OCc2ccc(Cl)cc2)O[C@H](COCc2ccc3ccccc3c2)[C@@H](O)[C@@H]1OCc1ccc2ccccc2c1 (stereo partly drawn) [Compound 378], the “MC4 Inhibition at 4.0 Micromolar” value (Example Library 10) was “+ (Indicates inhibition greater than . . . 50%)”.

With N=C(N)NCC(=O)N[C@H]1C(OCc2ccccc2)O[C@H](COCc2ccc(Cl)cc2)[C@@H](O)[C@@H]1OCc1ccc2ccccc2c1 (stereo partly drawn) [Compound 439] the “MC4 Inhibition at 4.0 Micromolar” value (Example Library 12) was “+ (Indicates inhibition greater than . . . 50%)”.

COC1C(O)C(COCc2ccc(Cl)cc2)OC(OCc2ccc3ccccc3c2)C1NC(=O)CCNC(=N)N (stereo not drawn) [Compound 76] was tested, and the “MC4 inhibition at 10 micromolar” value was “+ (Indicates inhibition greater than . . . 50%)”.

For COC1C(O)C(COCc2ccc(-c3ccccc3)cc2)OC(OCc2ccc3ccccc3c2)C1NC(=O)CCCNC(=N)N (stereo not drawn) [Compound 70], the “MC4 inhibition at 10 micromolar” value was “+ (Indicates inhibition greater than . . . 50%)”.

NCCCC(=O)N[C@H]1C(OCc2ccc(Cl)cc2)O[C@H](COCc2ccc3ccccc3c2)[C@@H](O)[C@@H]1OCc1ccc2ccccc2c1 (single isomer, unassigned) [Compound 390] was tested, and the “MC4 Inhibition at 4.0 Micromolar” value (Example Library 10) was “+ (Indicates inhibition greater than . . . 50%)”.

In the case of NCCC(=O)NC1C(OCc2ccccc2)OC(COCc2ccccc2)C(O)C1OCc1ccc2ccccc2c1 (stereo not drawn) [Compound 401], the “MC4 Inhibition at 4.0 Micromolar” value (Example Library 11) is reported as “+ (Indicates inhibition greater than . . . 50%)”.

With N=C(N)NCC(=O)N[C@H]1C(OCc2ccc(Cl)cc2)O[C@H](COCc2ccc3ccccc3c2)[C@@H](O)[C@H]1OCc1ccc(Cl)cc1 (stereo partly drawn) [Compound 479] the “MC4 Inhibition at 4.0 Micromolar” value (Example Library 13) was “+ (Indicates inhibition greater than . . . 50%)”.

In the case of COC1C(O)C(COCc2ccc3ccccc3c2)OC(OCc2ccc3ccccc3c2)C1NC(=O)CCNC(=N)N (stereo not drawn) [Compound 72], the “MC4 inhibition at 10 micromolar” value is reported as “+ (Indicates inhibition greater than . . . 50%)”.

For NCCCC(=O)N[C@H]1C(OCc2ccc3ccccc3c2)O[C@H](COCc2ccc(Cl)cc2)[C@@H](O)[C@@H]1OCc1ccc(Cl)cc1 (single isomer, unassigned) [Compound 368], the “MC4 Inhibition at 4.0 Micromolar” value (Example Library 10) was “+ (Indicates inhibition greater than . . . 50%)”.

For NCCC(=O)NC1C(OCc2ccc3ccccc3c2)OC(COCc2ccccc2)C(O)C1OCc1ccccc1 (stereo not drawn) [Compound 420], the “MC4 Inhibition at 4.0 Micromolar” value (Example Library 11) was “+ (Indicates inhibition greater than . . . 50%)”.

NCCC(=O)N[C@H]1C(OCc2ccc3ccccc3c2)O[C@H](COCc2ccc(Cl)cc2)[C@@H](O)[C@@H]1OCc1ccc(Cl)cc1 (stereo partly drawn) [Compound 355] was tested, and the “MC4 Inhibition at 4.0 Micromolar” value (Example Library 10) was “+ (Indicates inhibition greater than . . . 50%)”.

N=C(N)NCCC(=O)N[C@H]1C(OCc2ccc(-c3ccccc3)cc2)O[C@H](COCc2ccc3ccccc3c2)[C@@H](O)[C@H]1OCc1ccc2ccccc2c1 (stereo partly drawn) [Compound 473] was tested, and the “MC4 Inhibition at 4.0 Micromolar” value (Example Library 13) was “+ (Indicates inhibition greater than . . . 50%)”.

NCCCC(=O)NC1C(OCc2ccccc2)OC(COCc2ccc3ccccc3c2)C(O)C1OCc1ccccc1 (stereo not drawn) [Compound 411] was tested, and the “MC4 Inhibition at 4.0 Micromolar” value (Example Library 11) was “+ (Indicates inhibition greater than . . . 50%)”.

For NCCCC(=O)NC1C(OCc2ccc3ccccc3c2)OC(COCc2ccc(Cl)cc2)C(O)C1OCc1ccc2ccccc2c1 (stereo not drawn) [Compound 427], the “MC4 Inhibition at 4.0 Micromolar” value (Example Library 11) was “+ (Indicates inhibition greater than . . . 50%)”.

In the case of N=C(N)NCC(=O)N[C@H]1C(OCc2ccccc2)O[C@H](COCc2ccccc2)[C@@H](O)[C@@H]1OCc1ccc(-c2ccccc2)cc1 (stereo partly drawn) [Compound 442], the “MC4 Inhibition at 4.0 Micromolar” value (Example Library 12) is reported as “+ (Indicates inhibition greater than . . . 50%)”.

With CSC1OC(COCc2cccc(N)c2)C(O)C(OCc2ccccc2)C1NC(=O)c1c[nH]c2ccccc12 (stereo not drawn) [Compound 328] the “MC4 inhibition at 10 micromolar” value was “+ (Indicates inhibition greater than . . . 50%)”.

In the case of N=C(N)NCC(=O)NC1C(OCc2ccc(Cl)cc2)OC(COCc2ccc(Cl)cc2)C(O)C1OCc1ccc2ccccc2c1 (stereo not drawn) [Compound 484], the “MC4 Inhibition at 4.0 Micromolar” value (Example Library 13) is reported as “+ (Indicates inhibition greater than . . . 50%)”.

For N=C(N)NCC(=O)N[C@H]1C(OCc2ccccc2)O[C@H](COCc2ccc3ccccc3c2)[C@@H](O)[C@@H]1OCc1ccc(Cl)cc1 (stereo partly drawn) [Compound 431], the “MC4 Inhibition at 4.0 Micromolar” value (Example Library 12) was “+ (Indicates inhibition greater than . . . 50%)”.

With Cc1ccc(CO[C@H]2[C@H](O)[C@@H](CO)OC(NC(=O)CCN)[C@@H]2NC(=O)c2ccccc2)cc1 (stereo partly drawn) [Compound 504] the “MC4 Inhibition at 1.0 Micromolar” value was “+ (Indicates inhibition greater than . . . 50%)”.

For NCCCC(=O)NC1C(OCc2ccc3ccccc3c2)OC(COCc2ccc3ccccc3c2)C(O)C1OCc1ccccc1 (stereo not drawn) [Compound 428], the “MC4 Inhibition at 4.0 Micromolar” value (Example Library 11) was “+ (Indicates inhibition greater than . . . 50%)”.

With N=C(N)NCCC(=O)N[C@H]1C(OCc2ccccc2)O[C@H](COCc2ccc3ccccc3c2)[C@@H](O)[C@@H]1OCc1ccc(-c2ccccc2)cc1 (stereo partly drawn) [Compound 458] the “MC4 Inhibition at 4.0 Micromolar” value (Example Library 12) was “+ (Indicates inhibition greater than . . . 50%)”.

For NCCC(=O)N[C@H]1C(OCc2ccc3ccccc3c2)O[C@H](COCc2ccccc2)[C@@H](O)[C@@H]1OCc1ccc(Cl)cc1 (stereo partly drawn) [Compound 353], the “MC4 Inhibition at 4.0 Micromolar” value (Example Library 10) was “+ (Indicates inhibition greater than . . . 50%)”.

With NCCCC(=O)NC1C(OCc2ccc3ccccc3c2)OC(COCc2ccccc2)C(O)C1OCc1ccccc1 (stereo not drawn) [Compound 429] the “MC4 Inhibition at 4.0 Micromolar” value (Example Library 11) was “+ (Indicates inhibition greater than . . . 50%)”.

NCCC(=O)N[C@H]1C(OCc2ccc3ccccc3c2)O[C@H](COCc2ccccc2)[C@@H](O)[C@@H]1OCc1ccc(Cl)cc1 (stereo partly drawn) [Compound 352] was tested, and the “MC4 Inhibition at 4.0 Micromolar” value (Example Library 10) was “+ (Indicates inhibition greater than . . . 50%)”.

NCCC(=O)NC1O[C@H](CO)[C@@H](O)[C@H](OCc2ccccc2)[C@H]1NC(=O)c1ccccc1 (stereo partly drawn) [Compound 502] was tested, and the “MC4 Inhibition at 1.0 Micromolar” value was “+ (Indicates inhibition greater than . . . 50%)”.

With COC1C(O)C(COCc2ccc(-c3ccccc3)cc2)OC(OCc2ccc3ccccc3c2)C1NC(=O)CCNC(=N)N (stereo not drawn) [Compound 68] the “MC4 inhibition at 10 micromolar” value was “+ (Indicates inhibition greater than . . . 50%)”.

With NCCCC(=O)N[C@H]1C(OCc2ccc(Cl)cc2)O[C@H](COCc2ccc(Cl)cc2)[C@@H](O)[C@@H]1OCc1ccccc1 (stereo partly drawn) [Compound 396] the “MC4 Inhibition at 4.0 Micromolar” value (Example Library 10) was “+ (Indicates inhibition greater than . . . 50%)”.

For NCCC(=O)NC1C(OCc2ccccc2)OC(COCc2ccc3ccccc3c2)C(O)C1OCc1ccc2ccccc2c1 (stereo not drawn) [Compound 400], the “MC4 Inhibition at 4.0 Micromolar” value (Example Library 11) was “+ (Indicates inhibition greater than . . . 50%)”.

NCCC(=O)NC1C(OCc2ccccc2)OC(COCc2ccccc2)C(O)C1OCc1ccc(Cl)cc1 (stereo not drawn) [Compound 398] was tested, and the “MC4 Inhibition at 4.0 Micromolar” value (Example Library 11) was “+ (Indicates inhibition greater than . . . 50%)”.
